# Measured values from patent US10071994B2, “N-sulfonyl homoserine lactone derivatives, preparation method and use thereof” (priority 2014, dated 2018).
# Test system: C. violaceum CV026
# Experiment: Measurement of IC50 of compounds having an inhibitory effect on C. violaceum quorum sensing (purple pigment absorbance at 585 nm)
# Type: cell-based
# Conditions: Chromobacterium violaceum, CV026, read-out: IC50 of compounds having bacterial quorum sensing inhibitory activity
# Description: 2. Measurement of IC50 of Compounds Having an Inhibitory Effect on C. violaceum Quorum Sensing
# 2.1 The wells of a 12-well plate were marked as initial concentration group, 2, 4, 8, 16, 32, 64, 128, and 256 fold diluted group, DMSO group, and a blank control group from left to right and from up to bottom, respectively.
# 2.2 The monoclonal C. violaceum CV026 grew on LB solid plate was cultured to exponential phase in a 5 ml fresh LB liquid culture medium, and 50 μl was then taken for seeding in a 5 ml LB culture medium, and cultured until the optical density OD value was about 1.0. The culture was then mixed homogeneously with LB culture medium at a ratio of 1:9 (at an OD of about 0.15), and added to a 12-well plate in an amount of 2 ml/well.
# 2.3 The compounds having quorum sensing inhibitory activity in preliminarily screening were dissolved in DMSO (at a concentration of 0.065M), respectively, and then 10 μl was taken into 10 μl DMSO solution for 2-fold dilution, and so on. Each compound was gradiently diluted to a highest fold of 256 (gradient dilution of 2, 4, 8, 16, 32, 64, 128, 256 fold).
# 2.4 To each well, 15 μl 1000-fold diluted inducer C6-HSL (initial concentration of 0.125M) and 8 μl compound solution at each diluted gradient was added; to the DMSO group, 8 μl DMSO was added; to the blank control group, 8 μl LB culture medium was added. Finally, it was ensured that 2 ml culture in each of the 12-well plate was mixed homogeneously.
# 2.5 The 12-well plate was placed in a 30° C. shaker at 130 rpm and cultured for 10-12 h.
# 2.6 After the culture was finished, 1 ml culture was taken from each well and put in a 1.5 ml EP tube and then centrifuged at 12000 rpm for 10 mins. The supernatant of the culture was sucked out, and 500 μl DMSO was added to each EP tube to dissolve the purple pigment in the culture. […] 200 μl supernatant pigment was put in a 96-well culture plate, and measured for absorbance value at 585 nm by a Microplate Reader. The absorbance value and the corresponding concentration were plotted to get the IC50 value.
row,SMILES,IC50 [µM]
1,"Cc1ccsc1C(=O)Nc1ccc(S(=O)(=O)N[C@H]2CCOC2=O)cc1 [Compound 8, (s)-3-methyl-N-(4-(N-(2-oxotetrahydrofuran-3-yl)sulfamoyl)phenyl)thiophene-2-carboxamide]",69.2 ± 1.42
2,"O=C(Nc1ccc(S(=O)(=O)N[C@H]2CCOC2=O)cc1)c1sccc1Cl [Compound 9, (s)-3-chloro-N-(4-(N-(2-oxotetrahydrofuran-3-yl)sulfamoyl)phenyl)thiophene-2-carb oxamide]",9.19 ± 0.34
3,"O=C(Nc1ccc(S(=O)(=O)N[C@H]2CCOC2=O)cc1)c1sccc1Br [Compound 10, (s)-3-bromo-N-(4-(N-(2-oxotetrahydrofuran-3-yl)sulfamoyl)phenyl)thiophene-2-carboxamide]",13.5 ± 0.54

# Test system: C. violaceum CV026
# Experiment: Preliminary screening of bacterial quorum sensing regulatory (agonistic/inhibitory) activity on LB plate
# Type: cell-based, Chromobacterium violaceum
# Conditions: 1 μl of 0.065M DMSO solution spotted on LB plate with C. violaceum CV026, 30° C., 16-18 h; agonist: purple induced; inhibitor: white circle in presence of inducer C6-HSL
# Description: 1.1 Preparation work: compounds to be tested (Compounds 1-32 prepared in Example 1-32 and Intermediates 1-3) were weighed and then separately dissolved in 200 μl DMSO (dimethyl sulfoxide) to prepare a solution at a concentration of 0.065M. 5.0 mg inducer, N-hexanoyl homoserine lactone (C6—HSL, purchased from Sigma Company) was weighed and dissolved in 200 μl DMSO (at a concentration of 0.125M), the compounds and the inducer were all stored at 4° C. for further use. C. violaceum CV026 (donated by Professor McLean J C from Texas State University, the bacterium is the Tn-5 mutant of the wild type Chromobacterium violaceum ATCC31532; see Latifi, A., et al., Mol. Microbiol, 17, 333-343(1995) and Winson, M. K., et al., Proc. Natl. Acad. Sci. USA, 92, 9427-9431(1995)) was cultured under shaking in a shaker at 30° C., 200 rpm.
# 1.2 Method for preliminary screening of compounds having agonistic activity: 400 μl C. violaceum CV026 was added to 5 ml melted semi-solid LB culture medium (1% tryptone, 1% NaCl, and 0.5% yeast extract), and mixed homogeneously; the mixed culture medium was poured into a solid LB plate; when the mixed culture medium was solidified on the plate; 1 μl sample of the dissolved compound to be tested (Compounds 1-32 in Examples 1-32) was spotted on the plate; when the sample was dried in air, the plate was put in a 30° C. oven upside down and cultured for a period of 16-18 h. The agonistic activity of the compound was determined depending on whether purple strain was induced for C. violaceum CV026 on LB plate as well as the density of purple strain.
# 1.3 Method for preliminary screening of compounds having inhibitory activity: the inducer C6-HSL was diluted gradiently to 1000 times by means of 2-fold dilution; 15 μl of the diluted inducer and 400 μl C. violaceum CV026 in exponential phase were mixed homogeneously and then added to a 5 ml melted semi-solid LB culture medium; the mixture of inducer, C. violaceum, and semi-solid LB culture medium were poured onto a solid LB plate; when the mixture was solidified on the plate, 1 μl sample of the dissolved compound to be tested (Compounds 1-32 in Examples 1-32 and Intermediates 1-3) was spotted on the plate; when the sample was dried in air, the plate was put in a 30° C. oven upside down and was cultured for a period of 16-18 h. The inhibitory activity of a compound was preliminary determined depending on the size of the white circle appeared after C. violaceum CV026 was inhibited on LB plate.
# It is found, after preliminary screening, that 17 compounds according to the invention have bacterial quorum sensing regulatory activity, and the screening result was shown in Table 1.
row,SMILES,Regulatory activity (bacterial quorum sensing)
1,"O=C(Nc1ccc(S(=O)(=O)N[C@H]2CCOC2=O)cc1)c1cccs1 [Compound 1, (s)-N-(4-(N-(2-oxotetrahydrofuran-3-yl)sulfamoyl)phenyl)thiophene-2-carboxamide]",−
2,"O=C(Nc1ccc(S(=O)(=O)N[C@H]2CCOC2=O)cc1)c1ccsc1 [Compound 2, (s)-N-(4-(N-(2-oxotetrahydrofuran-3-yl)sulfamoyl)phenyl)thiophene-3-carboxamide]",−
3,"O=C(Nc1ccc(S(=O)(=O)N[C@H]2CCOC2=O)cc1)c1ccc(Cl)s1 [Compound 3, (s)-5-chloro-N-(4-(N-(2-oxotetrahydrofuran-3-yl)sulfamoyl)phenyl)thiophene-2-carb oxamide]",−
4,"O=C(Nc1ccc(S(=O)(=O)N[C@H]2CCOC2=O)cc1)c1ccc(Br)s1 [Compound 4, (s)-5-bromo-N-(4-(N-(2-oxotetrahydrofuran-3-yl)sulfamoyl)phenyl)thiophene-2-carb oxamide]",−
5,"O=C(Nc1ccc(S(=O)(=O)N[C@H]2CCOC2=O)cc1)c1cc(Br)cs1 [Compound 6, (s)-4-bromo-N-(4-(N-(2-oxotetrahydrofuran-3-yl)sulfamoyl)phenyl)thiophene-2-carb oxamide]",−
6,"Cc1csc(C(=O)Nc2ccc(S(=O)(=O)N[C@H]3CCOC3=O)cc2)c1 [Compound 7, (s)-4-methyl-N-(4-(N-(2-oxotetrahydrofuran-3-yl)sulfamoyl)phenyl)thiophene-2-carboxamide]",−
7,"Cc1ccsc1C(=O)Nc1ccc(S(=O)(=O)N[C@H]2CCOC2=O)cc1 [Compound 8, (s)-3-methyl-N-(4-(N-(2-oxotetrahydrofuran-3-yl)sulfamoyl)phenyl)thiophene-2-carboxamide]",−
8,"O=C(Nc1ccc(S(=O)(=O)N[C@H]2CCOC2=O)cc1)c1sccc1Cl [Compound 9, (s)-3-chloro-N-(4-(N-(2-oxotetrahydrofuran-3-yl)sulfamoyl)phenyl)thiophene-2-carb oxamide]",−
9,"O=C(Nc1ccc(S(=O)(=O)N[C@H]2CCOC2=O)cc1)c1sccc1Br [Compound 10, (s)-3-bromo-N-(4-(N-(2-oxotetrahydrofuran-3-yl)sulfamoyl)phenyl)thiophene-2-carboxamide]",−
10,"O=C(Nc1ccc(S(=O)(=O)N[C@H]2CCOC2=O)cc1)c1ccco1 [Compound 11, (s)-N-(4-(N-(2-oxotetrahydrofuran-3-yl)sulfamoyl)phenyl)furan-2-carboxamide]",±
11,"O=C(Nc1ccc(S(=O)(=O)N[C@H]2CCOC2=O)cc1)c1ccoc1 [Compound 12, (s)-N-(4-(N-(2-oxotetrahydrofuran-3-yl)sulfamoyl)phenyl)furan-3-carboxamide]",−
12,"O=C(Nc1ccc(S(=O)(=O)N[C@H]2CCOC2=O)cc1)c1ccc([N+](=O)[O-])o1 [Compound 13, (s)-5-nitro-N-(4-(N-(2-oxotetrahydrofuran-3-yl)sulfamoyl)phenyl)furan-2-carboxamide]",−
13,"Cc1occc1C(=O)Nc1ccc(S(=O)(=O)N[C@H]2CCOC2=O)cc1 [Compound 15, (s)-2-methyl-N-(4-(N-(2-oxotetrahydrofuran-3-yl)sulfamoyl)phenyl)furan-3-carboxamide]",−
14,"O=C(Nc1ccc(S(=O)(=O)NC2CCOC2=O)cc1)c1ccc[nH]1 (stereo not shown) [Compound 17, (s)-1H—N-(4-(N-(2-oxotetrahydrofuran-3-yl)sulfamoyl)phenyl)pyrrole-2-carboxamide]",−
15,"O=C(Cc1ccc(F)cc1)Nc1ccc(S(=O)(=O)N[C@H]2CCOC2=O)cc1 [Compound 20, (S)-4-fluoro-N-(4-(N-(2-oxotetrahydrofuran-3-yl)sulfamoyl)phenyl)benzeneacetamide]",−
16,"O=C(Cc1ccc(Cl)cc1)Nc1ccc(S(=O)(=O)N[C@H]2CCOC2=O)cc1 [Compound 21, (S)-4-chloro-N-(4-(N-(2-oxotetrahydrofuran-3-yl)sulfamoyl)phenyl)benzeneacetamide]",−
17,"O=C(Cc1ccccc1F)Nc1ccc(S(=O)(=O)N[C@H]2CCOC2=O)cc1 [Compound 27, (S)-2-fluoro-N-(4-(N-(2-oxotetrahydrofuran-3-yl)sulfamoyl)phenyl)benzeneacetamide]",+
18,"Br.NC1CCOC1=O (stereo not shown) [Intermediate 1, (L)-homoserine lactone hydrobromide]",+
19,"CC(=O)Nc1ccc(S(=O)(=O)N[C@H]2CCOC2=O)cc1 [Intermediate 2, (s)-N-(4-(N-(2-oxotetrahydrofuran-3-yl)sulfamoyl)phenyl)acetamide]",−
